According to US5281619A, “Therapy for diabetic complications” (Eli Lilly and Company, priority 1993, dated 1994):

What was measured:
[1] = tested on: bovine retinal capillary endothelial cells; test: Activation of bovine retinal capillary endothelial cells by phorbol esters (PA activity, cell number); assay type: cell-based; settings: for increase in endothelial cell activation (in words): phorbol esters known to activate PKC vs. 4-α analogues
From the text: Retinal capillary endothelial cell cultures were initiated from bovine eyes using a modification of the procedure of Buzney et al., Investigative Ophthalmology and Visual Sciences, 24: 470-480 (1983). Bovine eyes were transported on ice from a local abattoir. Extraocular muscle was trimmed from the eye, and the eye bisected posterior to the ora serrata. The vitreous and anterior portion of the eye were discarded, and the neuro-retina was gently dissected from the posterior eyecup. The retinas from 20 cattle were pooled and homogenized (5 strokes of a Teflon/glass homogenizer) in Hank's saline. The homogenate was passed through a 350μ filter to remove large debris and a 210μ filter to remove large vessels. The microvessels were trapped on a 85μ filter. The microvessels were resuspended in Hank's saline and digested with 7.5 mg/ml bacterial collagenase (Boeringher Mannheim, Indianapolis) Hank's saline for 1 hour at 37° C. The cells were pelleted by centrifugation (100 xg, 10 min), resuspended in 5 ml Endothelial Growth Media (EGM, Clonetics) and seeded in a gelatin-coated T-25 flask. After 24 hours the cells were trypsinized and replated in a gelatin coated T225. At 7 days and again at 14 days the cultures were labeled with acetylated lipoproteins labeled with the fluorescent probe (1,1'-dioctadecyl-3,3,3,3,-tetramethyl-indocarbocyanine perchlorate). The endothelial cells were separated from contaminating cell types using a fluorescent cell sorter as described in Voyta et al., J. Cell Biology, 99: 2034-2040 (1984).
Retinal capillary endothelial cells were seeded into 96-well plates and grown to confluence (10^5 cells/well) in EGM containing 10% fetal bovine serum (FBS). The media was changed to Dubecco's Modified Eagle's Medium with 10% fetal bovine serum 24 hours prior to the assay. The cells were treated with 50 nM 4-β phorbol 12,13-dibutyrate (4-β PDBu) to activate PKC and produce the activated endothelial phenotype characteristic of the diabetic state. The activated cells were treated with a series of dilutions of the test compounds. The phorbol esters and the test compounds were dissolved in DMSO before adding to the culture media. The cultures were incubated at 37° C. for 48 hours. Following treatment, the cells were lysed with 25mM NH4 OH in 0.5% triton X-100.
(§1) The activation of bovine retinal capillary endothelial cells was monitored through alterations in cellular plasminogen activator (PA) activity in the cell lysates. Plasminogen activator activity was determined in a 50 μl aliquot of cell lysate using the synthetic substrate H-D-valyl-L-leucyl-lysine-p-nitroaniline dihydrochloride (Kabi).
Dose-response curves generated for 4-β PDBu and 4-β PMA indicated […] of 50 nM and 5 nM respectively. Elevated PA activity was observed only after prolonged (at least 8 hours) stimulation with phorbol esters. The PA activity continued to increase in a time and dose dependent manner for up to 72 hours, but constant stimulation with phorbol ester was required to maintain endothelial cell activation.

[2] = tested on: bovine retinal capillary endothelial cells; test: Inhibition of phorbol ester-induced endothelial cell activation, plasminogen activator (PA) activity in cell lysates; assay type: cell-based; settings: Bos taurus, 4-β PDBu (50 nM) activated cells, 48 hours
From the text: Retinal capillary endothelial cell cultures were initiated from bovine eyes using a modification of the procedure of Buzney et al., Investigative Ophthalmology and Visual Sciences, 24: 470-480 (1983). Bovine eyes were transported on ice from a local abattoir. Extraocular muscle was trimmed from the eye, and the eye bisected posterior to the ora serrata. The vitreous and anterior portion of the eye were discarded, and the neuro-retina was gently dissected from the posterior eyecup. The retinas from 20 cattle were pooled and homogenized (5 strokes of a Teflon/glass homogenizer) in Hank's saline. The homogenate was passed through a 350μ filter to remove large debris and a 210μ filter to remove large vessels. The microvessels were trapped on a 85μ filter. The microvessels were resuspended in Hank's saline and digested with 7.5 mg/ml bacterial collagenase (Boeringher Mannheim, Indianapolis) Hank's saline for 1 hour at 37° C. […]
as §1

[3] = tested on: Glucose-Induced Vascular Dysfunction in Normal Rats; test: Glucose-induced vascular dysfunction in rat granulation tissue chamber model (permeability and blood flow); assay type: in vivo; settings: twice daily for 7 days, 30-35 mM glucose
Procedure: Representative compounds were evaluated in situ for their ability to block the increase in blood flow and permeability induced by high glucose in a rat tissue granulation tissue chamber model. In this model circles of skin were removed from the backs of normal rats and stainless steel screw-cap chambers were mounted. New granulation tissue formed within the chambers. Addition of 30-35 mM glucose (0.5 ml) twice daily to the chambers for 7 days induced a vascular dysfunction similar to that of diabetes--that is there was an increase in blood vessel permeability and an increase in blood flow. Blood flow was measured through the use of radiolabeled microspheres, and permeability was quantified using a dual label technique with iodinated albumin (^125 I/^131 I). Details of the model can be found in Tilton, et al., Diabetes38: 1258-1270 (1989). and Williamson, et al., J. Clin. Invest. 85: 1167-1172 (1990).
Representative compounds were dissolved in DMSO and diluted in a balanced salt solution to achieve a final concentration of 20 or 50 μM. The granulation chamber tissue was treated twice daily for 7 days to determine their effects on glucose-induced vascular dysfunction. Addition of 30-35 mM glucose to the granulation chamber induced a vascular dysfunction characterized by increased vessel permeability and increased blood flow.

[4] = tested on: vasculature in streptozotocin-diabetic rats; test: Microvascular dysfunction associated with streptozotocin-induced diabetes in rats (permeability and blood flow); assay type: in vivo, rat; settings: 0.1% in diet, 4 to 7-week period
Procedure: Representative compounds were further evaluated for their ability to block the microvascular dysfunction associated with streptozotocin-induced diabetes. Rats were made diabetic with an injection of streptozotocin, and the rats were feed ad libitum with a diet containing 0.1% of a representative compound. Blood flow was measured through the use of radiolabeled microspheres while permeability was quantified using a dual label technique with iodinated albumin (^125 I/^131 I). Details of the model can be found in Tilton et al., Diabetes38: 1258-1270 (1989), and Williamson et al., J. Clin. Invest. 85: 1167-1172 (1990).
Blood flow also was elevated on induction of diabetes in these tissues. In contrast, vascular function was not affected in the brain or muscle.

Structure (SMILES): CCCC(=O)OC1C(C)C2(O)C(C=C(CO)CC3(O)C(=O)C(C)=CC32)C2C(C)(C)C12OC(=O)CCC (stereo not drawn) [4-α PDBu]
- increase in endothelial cell activation (in words) [1]: not

Structure (SMILES): CCCCCCCCCCCCCC(=O)OC1C(C)C2(O)C(C=C(CO)CC3(O)C(=O)C(C)=CC32)C2C(C)(C)C12OC(C)=O (stereo not drawn) [4-α PMA]
- increase in endothelial cell activation (in words) [1]: not

Structure (SMILES): CCCC(=O)OC1C(C)C2(O)C(C=C(CO)CC3(O)C(=O)C(C)=CC32)C2C(C)(C)C12OC(=O)CCC (stereo not drawn) [4-β PDBu, 4-β phorbol 12,13-dibutyrate]
- increase in PA activity associated with the cell layer ([1]; confluent cells, 48 hours): 12 fold
- increase in PA released into the media ([1]; confluent cells, 48 hours): 12 fold
- increase in cell number ([1]; confluent cells, 48 hours): two fold increase in cell number
- increase in endothelial cell activation (in words) [1]: increase in activation occurred

Structure (SMILES): CCCCCCCCCCCCCC(=O)OC1C(C)C2(O)C(C=C(CO)CC3(O)C(=O)C(C)=CC32)C2C(C)(C)C12OC(C)=O (stereo not drawn) [4-β PMA]
- IC50 ([1]; Bos taurus, Endothelial cell, dose-response curves for phorbol esters): 5 nM
- increase in endothelial cell activation (in words) [1]: increase in activation occurred

Structure (SMILES): N#CC1=C(N)Oc2c(ccc3ccccc23)C1c1ccccc1[N+](=O)[O-] (stereo not shown) [Example 5, 2-Amino-4-(2-nitrophenyl)-4H-naphtho[1,2-b]pyran-3-carbonitrile]
- IC50 [2]: 500 nM
- BSA Clearance ([3]; 20 μM): 163 µg/g/min
- Blood Flow ([3]; 20 μM): 0.231 mL/g/min

Structure (SMILES): N#CC1=C(N)Oc2c(ccc3ccccc23)C1c1cccc([N+](=O)[O-])c1 (stereo not shown) [Example 6, 2 Amino-4-(3-nitrophenyl)-4H-naphtho[1,2-b]pyran-3-carbonitrile]
- IC50 [2]: 25 nM
- BSA Clearance ([3]; 20 μM): 179 µg/g/min
- Blood Flow ([3]; 20 μM): 0.184 mL/g/min
- BSA Clearance ([3]; 50 μM): 158 µg/g/min
- Blood Flow ([3]; 50 μM): 0.168 mL/g/min
- development of increased permeability and blood flow (in words) [4]: prevented the development of increased permeability and blood flow
- Permeability, Aorta ([4]; aorta, diabetic rats): 99.00 µg/g/min
- Blood Flow, Brain ([4]; brain, diabetic rats): 0.88 mL/min/g
- Permeability, Brain ([4]; brain, diabetic rats): 19.00 µg/g/min
- Permeability, Muscle ([4]; muscle, diabetic rats): 63.00 µg/g/min
- Blood Flow, Nerve ([4]; nerve, diabetic rats): 0.05 mL/min/g
- Permeability, Nerve ([4]; nerve, diabetic rats): 63.00 µg/g/min
- Blood Flow, Retina ([4]; retina, diabetic rats): 0.40 mL/min/g
- Permeability, Retina ([4]; retina, diabetic rats): 59.00 µg/g/min
